Assays:
HCV Genotype 1A Replicon = assay: Replicon assay, genotype 1a subgenomic replicon, luciferase readout; format: cell-based; conditions: Hepatitis C virus, 48 h, Table 3; luciferase activity after 48 hours
Procedure: (§1) Compounds were assayed for activity against HCV using the genotype 1a and 1b subgenomic replicon model systems. Stable cell lines bearing the genotype 1a and 1b replicons were used for screening of compounds. Both replicons are bicistonic and contain the firefly luciferase gene. The ET cell line is stably transfected with RNA transcripts harboring a I389luc-ubi-neo/NS3-3′/ET replicon with firefly luciferase-ubiquitin-neomycin phosphotransferase fusion protein and EMCV-IRES driven NS3-5B polyprotein containing the cell culture adaptive mutations (E1202G; T12801; K1846T) (Krieger at al, 2001 and unpublished). The genotype 1a replicon is a stable cell line licensed from Apath LLC, modified to contain the firefly luciferase gene. The cells were grown in DMEM, supplemented with 10% fetal calf serum, 2 mM Glutamine, Penicillin (100 IU/mL)/Streptomycin (100 μg/mL), 1× nonessential amino acids, and 250-500 μg/mL G418 (“Geneticin”). They were all available through Life Technologies (Bethesda, Md.). The cells were plated at 0.5×10^4 cells/well in 384 well plates containing compounds. The final concentration of compounds ranged between 0.03 μM to 50 μm and the final DMSO concentration of 0.5-1%.
(§2) Luciferase activity was measured 48 hours later by adding a Steady glo (Promega, Madison, Wis.). Percent inhibition of replication data was plotted relative to no compound control. Under the same condition, cytotoxicity of the compounds was determined using cell titer glo (Promega, Madison, Wis). IC50s were determined from a 10 point dose response curve using 3-4-fold serial dilution for each compound, which spans a concentration range >1000 fold. BioAssay determines the level of inhibition for each compound by normalizing cross-talk corrected plate values against the negative […] controls to determine Percent Inhibition:
(§3) These normalized values are exported to EC50 where they are plotted against the molar compound concentrations using the standard four parameter logistic equation: […]
(§4) Some EC50 measurements were repeated a second time and for both 1A and 1B genotypes after those reported in Table 2 for compounds 101-108 and the repeated data was reported in Table 3.

HCV Genotype 1B Replicon = assay: Replicon assay, genotype 1b subgenomic replicon (ET cell line), luciferase readout; format: cell-based; conditions: Hepatitis C virus, 48 h, Table 3; luciferase activity after 48 hours
Procedure: as §1, §2, §3, §4

Structure (SMILES)	EC50 (HCV Genotype 1A Replicon)	EC50 (HCV Genotype 1B Replicon)
O=C1CN(C(=O)c2nc3c(C(F)(F)F)cc(C4CC4)cn3c2Cl)CC[C@@H]1N1CCOC1=O (stereo in doubt) [Compound 232, 1-{[3-chloro-6-cyclopropyl-8-(trifluoromethyl)imidazo[1,2-a]pyridin-2-yl]carbonyl}-4-(2-oxo-1,3-oxazolidin-3-yl)-3-piperidinone]	60 nM	80 nM
O=C(c1nc2c(C(F)(F)F)cc(-n3ccnc3)cn2c1Cl)N1CCC(N2CCOC2=O)CC1 [Compound 139, 3-(1-{[3-chloro-6-(1H-imidazol-1-yl)-8-(trifluoromethyl)imidazo[1,2-a]pyridin-2-yl]carbonyl}-4-piperidinyl)-1,3-oxazolidin-2-one]	2660 nM	≥ 5010 nM
O=C(c1nc2c(C(F)(F)F)cc(Br)cn2c1Cl)N1CCC(N2CCCC2=O)CC1 [Compound 143, 1-(1-{[6-bromo-3-chloro-8-(trifluoromethyl)imidazo[1,2-a]pyridin-2-yl]carbonyl}-4-piperidinyl)-2-pyrrolidinone]	480 nM	200 nM
O=C(c1nc2c(C(F)(F)F)cc(C3CC3)cn2c1Cl)N1CC[C@H](N2CCCC2=O)[C@H](O)C1 (racemic) [Compound 228, (±) cis-1-(1-{[3-chloro-6-cyclopropyl-8-(trifluoromethyl)imidazo[1,2-a]pyridin-2-yl]carbonyl}-3-hydroxy-4-piperidinyl)-2-pyrrolidinone]	250 nM	90 nM
O=C(c1nc2c(C(F)(F)F)cc(OC(F)F)cn2c1Cl)N1CCC(N2C(=O)COC2=O)CC1 [Compound 145, 3-(1-{[3-chloro-6-[(difluoromethyl)oxy]-8-(trifluoromethyl)imidazo[1,2-a]pyridin-2-yl]carbonyl}-4-piperidinyl)-1,3-oxazolidine-2,4-dione]	50 nM	50 nM
O=C(c1nc2c(C(F)(F)F)cc(-c3ccoc3)cn2c1Br)N1CCC(N2C(=O)COC2=O)CC1 [Compound 159, 3-(1-{[3-bromo-6-(3-furanyl)-8-(trifluoromethyl)imidazo[1,2-a]pyridin-2-yl]carbonyl}-4-piperidinyl)-1,3-oxazolidine-2,4-dione]	30 nM	30 nM
O=C(c1nc2c(C(F)(F)F)cc(-c3ccoc3)cn2c1Cl)N1CC[C@H](N2C(=O)COC2=O)[C@@H](O)C1 (racemic) [Compound 223, (±) trans-3-(1-{[3-chloro-6-(3-furanyl)-8-(trifluoromethyl)imidazo[1,2-a]pyridin-2-yl]carbonyl}-3-hydroxy-4-piperidinyl)-1,3-oxazolidine-2,4-dione]	1580 nM	810 nM
CCCc1cc(C(F)(F)F)c2nc(C(=O)N3CCC(N4CCOC4=O)CC3)c(Cl)n2c1 [Compound 129, 3-(1-{[3-chloro-6-propyl-8-(trifluoromethyl)imidazo[1,2-a]pyridin-2-yl]carbonyl}-4-piperidinyl)-1,3-oxazolidin-2-one]	20 nM	120 nM
O=C(c1nc2c(C(F)(F)F)cc(-c3cccc(F)c3)cn2c1Cl)N1CCC(N2CCOC2=O)CC1 [Compound 114]	30 nM	310 nM
O=C(c1nc2c(C(F)(F)F)cc(C3CC3)cn2c1Br)N1CCC(N2CCOC2=O)CC1 [Compound 197, 3-(1-{[3-bromo-6-cyclopropyl-8-(trifluoromethyl)imidazo[1,2-a]pyridin-2-yl]carbonyl}-4-piperidinyl)-1,3-oxazolidin-2-one]	10 nM	10 nM
CC(=O)Nc1cc(C(F)(F)F)c2nc(C(=O)N3CCC(N4CCOC4=O)CC3)c(Cl)n2c1 [Compound 198, N-[3-chloro-2-{[4-(2-oxo-1,3-oxazolidin-3-yl)-1-piperidinyl]carbonyl}-8-(trifluoromethyl)imidazo[1,2-a]pyridin-6-yl]acetamide]	≥ 5010 nM	≥ 5010 nM
CO[C@H]1CN(C(=O)c2nc3c(C(F)(F)F)cc(C4CC4)cn3c2Cl)CC[C@@H]1N1CCOC1=O (racemic) [Compound 238, (±) trans-3-[1-{[3-chloro-6-cyclopropyl-8-(trifluoromethyl)imidazo[1,2-a]pyridin-2-yl]carbonyl}-3-(methyloxy)-4-piperidinyl]-1,3-oxazolidin-2-one]	≥ 5010 nM	≥ 5010 nM
O=C(c1cn2cc(-c3ccoc3)cc(C(F)(F)F)c2n1)N1CCC(N2CCOC2=O)CC1 [Compound 203, 3-(1-{[6-(3-furanyl)-8-(trifluoromethyl)imidazo[1,2-a]pyridin-2-yl]carbonyl}-4-piperidinyl)-1,3-oxazolidin-2-one]	320 nM	2340 nM
O=C(c1nc2c(C(F)(F)F)cc(C3CCC3)cn2c1Cl)N1CCC(N2CCOC2=O)CC1 [Compound 128, 3-(1-{[3-chloro-6-cyclobutyl-8-(trifluoromethyl)imidazo[1,2-a]pyridin-2-yl]carbonyl}-4-piperidinyl)-1,3-oxazolidin-2-one]	10 nM	30 nM
CC(C)c1cc(C(F)(F)F)c2nc(C(=O)N3CCC(N4CCOC4=O)CC3)c(Cl)n2c1 [Compound 154, 3-(1-{[3-chloro-6-(1-methylethyl)-8-(trifluoromethyl)imidazo[1,2-a]pyridin-2-yl]carbonyl}-4-piperidinyl)-1,3-oxazolidin-2-one]	20 nM	20 nM
O=C(c1nc2c(C(F)(F)F)cc(Cl)cn2c1Cl)N1CCC(N2CCCC2=O)CC1 [Compound 110, 1-(1-{[3,6-dichloro-8-(trifluoromethyl)imidazo[1,2-a]pyridin-2-yl]carbonyl}-4-piperidinyl)-2-pyrrolidinone]	1740 nM	800 nM
O=C(c1nc2c(C(F)(F)F)cc(-c3cc[nH]c3)cn2c1Cl)N1CCC(N2CCOC2=O)CC1 [Compound 147, 3-(1-{[3-chloro-6-(1H-pyrrol-3-yl)-8-(trifluoromethyl)imidazo[1,2-a]pyridin-2-yl]carbonyl}-4-piperidinyl)-1,3-oxazolidin-2-one]	20 nM	20 nM
CC1(C)COC(=O)N1C1CCN(C(=O)c2nc3c(C(F)(F)F)cc(-c4cn[nH]c4)cn3c2Cl)CC1 [Compound 177, 3-(1-{[3-chloro-6-(1H-pyrazol-4-yl)-8-(trifluoromethyl)imidazo[1,2-a]pyridin-2-yl]carbonyl}-4-piperidinyl)-4,4-dimethyl-1,3-oxazolidin-2-one]	≥ 50100 nM	≥ 50100 nM
O=C(c1nc2c(C(F)(F)F)cc(-c3ccccc3O)cn2c1Cl)N1CCC(N2CCOC2=O)CC1 [Compound 121]	440 nM	2850 nM
COc1ccc(-c2cc(C(F)(F)F)c3nc(C(=O)N4CCC(N5CCOC5=O)CC4)c(Cl)n3c2)cc1 [Compound 118]	150 nM	17600 nM
CO[C@H]1CN(C(=O)c2nc3c(C(F)(F)F)cc(Br)cn3c2Cl)CC[C@@H]1N1CCOC1=O (racemic) [Compound 237, (±) trans-3-[1-{[6-bromo-3-chloro-8-(trifluoromethyl)imidazo[1,2-a]pyridin-2-yl]carbonyl}-3-(methyloxy)-4-piperidinyl]-1,3-oxazolidin-2-one]	≥ 5010 nM	≥ 5010 nM
O=C(c1nc2c(C(F)(F)F)cc(-c3ccoc3)cn2c1Cl)N1CCC(N2CCNC2=O)CC1 [Compound 169, 1-(1-{[3-chloro-6-(3-furanyl)-8-(trifluoromethyl)imidazo[1,2-a]pyridin-2-yl]carbonyl}-4-piperidinyl)-2-imidazolidinone]	1880 nM	160 nM
COc1cc(C(F)(F)F)c2nc(C(=O)N3CCC(N4CCOC4=O)CC3)c(Cl)n2c1 [Compound 132, 3-(1-{[3-chloro-6-(methyloxy)-8-(trifluoromethyl)imidazo[1,2-a]pyridin-2-yl]carbonyl}-4-piperidinyl)-1,3-oxazolidin-2-one]	130 nM	210 nM
C[C@H]1OC(=O)N(C2CCN(C(=O)c3nc4c(C(F)(F)F)cc(-c5ccoc5)cn4c3Cl)CC2)C1=O [Compound 191, (5R)-3-(1-{[3-chloro-6-(3-furanyl)-8-(trifluoromethyl)imidazo[1,2-a]pyridin-2-yl]carbonyl}-4-piperidinyl)-5-methyl-1,3-oxazolidine-2,4-dione]	210 nM	40 nM
O=C(c1nc2c(C(F)(F)F)cc(-c3ccc(F)cc3)cn2c1Cl)N1CCC(N2CCOC2=O)CC1 [Compound 115, 3-(1-{[3-chloro-6-(4-fluorophenyl)-8-(trifluoromethyl)imidazo[1,2-a]pyridin-2-yl]carbonyl}-4-piperidinyl)-1,3-oxazolidin-2-one]	60 nM	3690 nM
O=C(c1nc2c(C(F)(F)F)cc(-c3ccsc3)cn2c1Cl)N1CCC(N2CCOC2=O)CC1 [Compound 119]	10 nM	50 nM
